{"source": "patent US20050192240A1", "about": "“Methods and compositions relating to expression factors” (priority 2004, published 2005)", "format_in_all_cases": "cell-based", "key": {"[1]": {"tested_on": "C. albicans", "assay": "Etest antifungal strip susceptibility of C. albicans strains", "description": "The three C. albicans strains SC5314 (wild type), YLO133 (homozygous mutant Candt80/Candt80) and YLO137 (rescued strain of YLO133 with one copy of CaNDT80), were also tested for susceptibility to five different drugs using the Etest. Five different antifungal strips (AB BIODISK, Solna, Sweden) were used: amphotericin B at 0.002-32 μg/ml (AP), 5-fluorocytosine at 0.002-32 μg/ml (FC), fluconazole at 0.016-256 μg/ml (FL), itraconazole at 0.002-32 μg/ml (IT) and ketoconazole at 0.002-32 μg/ml (KE). Each strain was grown overnight on an SD plate and homogenized colonies from the plate were transferred into 0.85% NaCl to achieve a suspension of about 5×10^6 cells/ml. A sterile swab was dipped into the inoculum suspension and the entire agar surface of a SD plate was evenly streaked. Each plate was dried until excess moisture was completely absorbed and each of the five different Etest strips were applied onto each plate. The plates were incubated at 30° C. and were photographed after 2 days of growth. Susceptibility to a drug is indicated by a clear inhibition zone around the antifungal strip where growth has been inhibited. Degree of susceptibility is indicated by the size of the ring."}, "[2]": {"tested_on": "C. albicans", "assay": "Agar dilution assay of C. albicans strains", "settings": "Candt80/Candt80 mutant versus wild-type or rescued strain; fluconazole 25 μg/ml, voriconazole 1 μg/ml", "description": "The cdr1/cdr1 homozygous mutant was constructed according to Sanglard et al., Antimicrob. Agents Chemother. 40:2300-2305, 1996. Fluconazole and voriconazole were prepared to a final concentration of 25 μg/ml and 1 μg/ml, respectively in dimethylsulfoxide (DMSO). C. albicans cells grown on media containing DMSO and in the absence of drug, was used as the control. C. albicans cells were diluted to an OD600 of 2 (corresponding to approximately 2×10^7cells/ml) and 0.5 μl was spotted onto plates containing either fluconazole (25 μg/ml) or voriconazole (1 μg/ml) using a replica device (Oxoid Inc., Canada). Cells were also prepared and spotted in 10-fold serial dilutions (10^4 to 10 cells)."}, "[3]": {"tested_on": "S. cerevisiae", "assay": "Etest antifungal strip susceptibility of S. cerevisiae strains", "settings": "for MIC: Saccharomyces cerevisiae, SD plate, 30° C., read-out: minimum inhibitory concentration (MIC)", "excerpt": "The effect on drug susceptibility by overexpression of CaNdt80p and its S. cerevisiae homolog, Ndt80p, were compared using the antifungal strips, Etest (AB BIODISK, Solna, Sweden) (Arendrup et al., J. Antimicrob. Chemother. 47:521-526, 2001; Chang et al., J. Clin. Microbiol 39:1328-1333, 2001). S. cerevisiae Ndt80p was identified as a meiosis specific transcription factor (Chu et al., Science 282:699-705, 1998; Chu and Herskowitz, Mol. Cell 1:685-696, 1998). Ndt80p is autoregulated and activates its targets through a mid-sporulation element consensus site (MSE: gNCRCAAAA/T) in the target (Chu and Herskowitz, Mol. Cell 1:685-696, 1998). Expression of the NDT80 gene is repressed during vegetative growth (Xu et al., Mol. Cell Biol. 15:6572-6581, 1995; Pak and Segall, Mol. Cell Biol. 22:6417-6429, 2002).\nFirst, homogenized isolated colonies from an overnight SD plate were transferred into a 0.85% NaCl solution to achieve a suspension containing 5×10^6 cells/ml. A sterile swab was dipped into the inoculum suspension and the entire agar surface of an SD plate was streaked evenly with the swab. The plates were allowed to dry until all excess moisture was completely absorbed, and the Etest strips (AB BIODISK, Solna, Sweden) were applied onto each plate. The plates were incubated at 30° C. and were photographed after 3 days of growth. These Etest strips tested the susceptibility to ketoconazole (0.002-32 μg/ml) (KE) and fluconazole (0.016-256 μg/ml) (FL). Susceptibility is indicated by a clear ring around the antifungal strips where growth has been inhibited. Degree of susceptibility is indicated by the size of the ring. The strains tested were the NDT80/NDT80 wild type S. cerevisiae strain transformed with the control vectors 2μ-URA3and CEN-LEU2 (Christianson et al., Gene 110:119-122, 1992; Sikorski and Hieter, Genetics 122:19-27, 1989) (designated as strain SLO16) (“NDT80/NDT80” lane in FIG. 6); a ndt80/ndt80 homozygous mutant transformed with the control 2μ-URA3 vector (designated as strain SLO14) (“ndt80/ndt80 2μ vector” lane in FIG. 6); a ndt80/ndt80 homozygous mutant transformed with the 2μ-URA3-NDT80 plasmid, LOB46 (designated as strain SLO13) (“ndt80/ndt80 2μ NDT80” lane in FIG. 6); and a ndt80/ndt80 homozygous mutant transformed with the 2μ-URA3-CaNDT80 plasmid, LOB44 (designated as strain SLO15) (“ndt80/ndt80 2μ CaNDT80” lane in FIG. 6).\nIn a separate experiment, a strain harboring the LOB44 plasmid without the NDT80 gene was tested in the Etest."}, "[4]": {"tested_on": "C. albicans", "assay": "RT-PCR of CDR1 and CaNDT80 mRNA with or without miconazole", "settings": "miconazole 100 μg/ml, one hour, 30° C.; strains SC5314, YLO133, YLO137", "description": "C. albicans strains SC5314 (wild type), YLO133 (homozygous mutant Candt80/Candt80) and YLO137 (rescued strain of YLO133 with one copy of CaNDT80), were grown in the presence or absence of the antifungal agent, miconazole (Sigma) at 100 μg/ml for one hour at 30° C. The level of mRNAs of TEF3 (control), CDR1, and CaNDT80, was measured by reverse transcriptase polymerase chain reaction (RT-PCR). […] Lanes 2-4 and 11-13 represent mRNA from YLO133 (homozygous mutant), lanes 5-7 and 14-16 represent mRNA from YLO137 (rescued mutant), and lanes 8-10 and 17-19 represent mRNA from the wild-type strain, SC5314. Lanes 2, 5, 8, 11, 14, and 17 were tested for TEF3 mRNA (internal control); lanes 3, 6, 9, 12, 15, and 18, were tested for CDR1 mRNA; and lanes 4, 7, 10, 13, 16, and 19 were tested for CaNDT80 mRNA. As expected, no CaNDT80 mRNA was detected in the homozygous mutant (FIG. 9, lanes […] and 13). In contrast, CaNDT80 mRNA was detected in the wild-type strain during vegetative growth (FIG. 9, lanes 10 and 19), unlike its homolog NDT80 in S. cerevisiae."}, "[5]": {"settings": "homozygous mutant Candt80/Candt80 (YLO133) compared with wild type SC5314, 2 days"}, "[6]": {"settings": "S. cerevisiae overexpressing CaNDT80 (LOB44 plasmid)"}, "[7]": {"settings": "S. cerevisiae transformed with control vector"}}, "note": "Where two headings read alike, the source gives them in different places.", "data": [{"smiles": "Nc1nc(=O)[nH]cc1F", "note": "[5-fluorocytosine]", "values": [{"measurement": "drug susceptibility (inhibition zone)", "setting": "[1]; [5]", "result": "increased susceptibility"}]}, {"smiles": "OC(Cn1cncn1)(Cn1cncn1)c1ccc(F)cc1F", "note": "[fluconazole]", "values": [{"measurement": "drug susceptibility (inhibition zone)", "setting": "[1]; [5]", "result": "increased susceptibility"}, {"measurement": "drug susceptibility (inhibition zone)", "setting": "[1]; rescued strain YLO137 (one copy of CaNDT80) compared with wild type SC5314, 2 days", "result": "more susceptible"}, {"measurement": "susceptibility (growth on drug plates)", "setting": "[2]", "result": "more susceptible"}, {"measurement": "MIC", "setting": "[3]; [6]", "result": 64, "unit": "µg/mL"}, {"measurement": "MIC", "setting": "[3]; [7]", "result": 24, "unit": "µg/mL"}]}, {"smiles": "CC(=O)N1CCN(c2ccc(OCC3COC(Cn4ccnc4)(c4ccc(Cl)cc4Cl)O3)cc2)CC1", "note": "(stereo not drawn) [ketoconazole]", "values": [{"measurement": "drug susceptibility (inhibition zone)", "setting": "[1]; [5]", "result": "increased susceptibility"}, {"measurement": "MIC", "setting": "[3]; [6]", "result": "≥ 32", "unit": "µg/mL"}, {"measurement": "MIC", "setting": "[3]; [7]", "result": 6, "unit": "µg/mL"}, {"measurement": "drug susceptibility (inhibition zone)", "setting": "[3]; ndt80/ndt80 2μ CaNDT80 compared with NDT80/NDT80 S. cerevisiae, 3 days", "result": "decreased"}]}, {"smiles": "Clc1ccc(COC(Cn2ccnc2)c2ccc(Cl)cc2Cl)c(Cl)c1", "note": "(stereo not drawn) [miconazole]", "values": [{"measurement": "patterns of TEF3, CDR1 and CaNDT80 mRNA with versus without treatment", "setting": "[4]", "result": "comparable"}]}, {"smiles": "C[C@@H](c1ncncc1F)[C@](O)(Cn1cncn1)c1ccc(F)cc1F", "note": "[voriconazole]", "values": [{"measurement": "susceptibility (growth on drug plates)", "setting": "[2]", "result": "more susceptible"}]}]}
